pIC50: −log10 of the molar value. Calls of active or inactive are those of the source. No cut-off for these calls is given here.
target: T1, von Hippel-Lindau disease tumor suppressor/Nuclear receptor coactivator 3 (Homo sapiens) (UniProt Q9Y6Q9+P40337); experiment: PROTAC activity at VHL/SRC-3 in human MCF7 cells assessed as induction of SRC-3 degradation at 1 uM incubated for 24 hrs by immunoblot analysis relative to control; format: cell-based
T1 sequence (P40337 whole entry, looked up): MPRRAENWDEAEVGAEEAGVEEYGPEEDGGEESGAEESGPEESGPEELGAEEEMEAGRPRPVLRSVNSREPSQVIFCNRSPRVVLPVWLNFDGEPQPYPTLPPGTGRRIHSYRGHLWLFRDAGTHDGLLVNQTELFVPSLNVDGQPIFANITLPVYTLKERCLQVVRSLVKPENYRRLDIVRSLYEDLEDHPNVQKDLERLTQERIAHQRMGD
T1 sequence (Q9Y6Q9 whole entry, looked up): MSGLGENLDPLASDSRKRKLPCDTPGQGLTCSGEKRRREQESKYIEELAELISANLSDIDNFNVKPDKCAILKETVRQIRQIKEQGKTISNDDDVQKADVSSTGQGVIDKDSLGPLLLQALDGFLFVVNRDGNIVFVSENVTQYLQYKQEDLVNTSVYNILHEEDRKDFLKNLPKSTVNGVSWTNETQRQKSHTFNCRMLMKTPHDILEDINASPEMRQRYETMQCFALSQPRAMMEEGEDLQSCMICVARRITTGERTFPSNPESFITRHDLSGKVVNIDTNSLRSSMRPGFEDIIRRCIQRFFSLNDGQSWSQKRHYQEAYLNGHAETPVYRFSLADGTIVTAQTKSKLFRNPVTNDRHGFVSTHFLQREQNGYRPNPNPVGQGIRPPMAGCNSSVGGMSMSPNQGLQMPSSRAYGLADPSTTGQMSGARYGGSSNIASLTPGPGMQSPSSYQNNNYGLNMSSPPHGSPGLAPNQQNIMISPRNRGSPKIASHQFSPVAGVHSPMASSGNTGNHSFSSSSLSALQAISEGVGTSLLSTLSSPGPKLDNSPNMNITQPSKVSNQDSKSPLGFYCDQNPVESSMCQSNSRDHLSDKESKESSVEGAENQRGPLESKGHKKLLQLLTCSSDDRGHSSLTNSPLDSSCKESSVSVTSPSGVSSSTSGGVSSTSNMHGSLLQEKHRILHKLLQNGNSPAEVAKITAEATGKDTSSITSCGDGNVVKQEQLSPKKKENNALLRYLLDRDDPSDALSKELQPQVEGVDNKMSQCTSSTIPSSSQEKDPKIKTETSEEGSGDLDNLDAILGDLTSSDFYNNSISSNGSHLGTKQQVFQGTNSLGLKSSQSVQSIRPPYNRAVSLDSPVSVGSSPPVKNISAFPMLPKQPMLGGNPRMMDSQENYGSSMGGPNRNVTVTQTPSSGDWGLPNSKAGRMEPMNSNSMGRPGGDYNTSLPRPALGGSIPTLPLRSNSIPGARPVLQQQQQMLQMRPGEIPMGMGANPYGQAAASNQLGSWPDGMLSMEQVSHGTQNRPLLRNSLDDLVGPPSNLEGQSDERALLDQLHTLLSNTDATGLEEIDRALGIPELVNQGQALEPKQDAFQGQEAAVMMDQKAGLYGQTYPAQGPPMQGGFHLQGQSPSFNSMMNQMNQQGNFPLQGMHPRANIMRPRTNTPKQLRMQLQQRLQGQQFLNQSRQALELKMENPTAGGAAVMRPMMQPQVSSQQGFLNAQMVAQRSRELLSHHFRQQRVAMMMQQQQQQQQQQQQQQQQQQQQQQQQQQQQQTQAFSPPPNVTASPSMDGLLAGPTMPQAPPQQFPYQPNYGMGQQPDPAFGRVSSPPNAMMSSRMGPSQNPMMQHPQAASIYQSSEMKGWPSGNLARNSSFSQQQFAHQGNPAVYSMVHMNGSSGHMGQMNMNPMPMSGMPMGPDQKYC

`C/C(=N\Nc1nc2ccccc2n1CCNC(=O)CCCCCN[C@H](C(=O)N1C[C@H](O)C[C@H]1C(=O)N[C@@H](C)c1ccc(-c2scnc2C)cc1)C(C)(C)C)c1ccccn1` gave an Activity of 8%.

target: T2, Protein cereblon/Nuclear receptor coactivator 3 (Homo sapiens, UniProt Q9Y6Q9+Q96SW2); experiment: PROTAC activity at CRBN/SRC-3 in human MCF7 cells assessed as induction of SRC-3 degradation at 1 uM incubated for 24 hrs by immunoblot analysis relative to control; format: cell-based
T2 sequence (Q96SW2 whole entry partner): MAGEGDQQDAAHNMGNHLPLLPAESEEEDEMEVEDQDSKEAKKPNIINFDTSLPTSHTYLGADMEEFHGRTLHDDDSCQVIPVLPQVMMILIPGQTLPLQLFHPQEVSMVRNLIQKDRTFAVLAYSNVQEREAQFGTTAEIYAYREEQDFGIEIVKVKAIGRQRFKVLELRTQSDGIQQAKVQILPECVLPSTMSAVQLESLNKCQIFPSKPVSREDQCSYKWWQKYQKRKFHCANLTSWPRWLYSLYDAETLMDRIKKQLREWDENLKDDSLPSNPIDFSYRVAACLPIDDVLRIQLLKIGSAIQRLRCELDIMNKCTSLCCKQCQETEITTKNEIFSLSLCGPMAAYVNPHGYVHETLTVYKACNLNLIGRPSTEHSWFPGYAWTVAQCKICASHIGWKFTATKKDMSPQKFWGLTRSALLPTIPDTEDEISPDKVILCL
T2 sequence (Q9Y6Q9 2-1424 limits assumed): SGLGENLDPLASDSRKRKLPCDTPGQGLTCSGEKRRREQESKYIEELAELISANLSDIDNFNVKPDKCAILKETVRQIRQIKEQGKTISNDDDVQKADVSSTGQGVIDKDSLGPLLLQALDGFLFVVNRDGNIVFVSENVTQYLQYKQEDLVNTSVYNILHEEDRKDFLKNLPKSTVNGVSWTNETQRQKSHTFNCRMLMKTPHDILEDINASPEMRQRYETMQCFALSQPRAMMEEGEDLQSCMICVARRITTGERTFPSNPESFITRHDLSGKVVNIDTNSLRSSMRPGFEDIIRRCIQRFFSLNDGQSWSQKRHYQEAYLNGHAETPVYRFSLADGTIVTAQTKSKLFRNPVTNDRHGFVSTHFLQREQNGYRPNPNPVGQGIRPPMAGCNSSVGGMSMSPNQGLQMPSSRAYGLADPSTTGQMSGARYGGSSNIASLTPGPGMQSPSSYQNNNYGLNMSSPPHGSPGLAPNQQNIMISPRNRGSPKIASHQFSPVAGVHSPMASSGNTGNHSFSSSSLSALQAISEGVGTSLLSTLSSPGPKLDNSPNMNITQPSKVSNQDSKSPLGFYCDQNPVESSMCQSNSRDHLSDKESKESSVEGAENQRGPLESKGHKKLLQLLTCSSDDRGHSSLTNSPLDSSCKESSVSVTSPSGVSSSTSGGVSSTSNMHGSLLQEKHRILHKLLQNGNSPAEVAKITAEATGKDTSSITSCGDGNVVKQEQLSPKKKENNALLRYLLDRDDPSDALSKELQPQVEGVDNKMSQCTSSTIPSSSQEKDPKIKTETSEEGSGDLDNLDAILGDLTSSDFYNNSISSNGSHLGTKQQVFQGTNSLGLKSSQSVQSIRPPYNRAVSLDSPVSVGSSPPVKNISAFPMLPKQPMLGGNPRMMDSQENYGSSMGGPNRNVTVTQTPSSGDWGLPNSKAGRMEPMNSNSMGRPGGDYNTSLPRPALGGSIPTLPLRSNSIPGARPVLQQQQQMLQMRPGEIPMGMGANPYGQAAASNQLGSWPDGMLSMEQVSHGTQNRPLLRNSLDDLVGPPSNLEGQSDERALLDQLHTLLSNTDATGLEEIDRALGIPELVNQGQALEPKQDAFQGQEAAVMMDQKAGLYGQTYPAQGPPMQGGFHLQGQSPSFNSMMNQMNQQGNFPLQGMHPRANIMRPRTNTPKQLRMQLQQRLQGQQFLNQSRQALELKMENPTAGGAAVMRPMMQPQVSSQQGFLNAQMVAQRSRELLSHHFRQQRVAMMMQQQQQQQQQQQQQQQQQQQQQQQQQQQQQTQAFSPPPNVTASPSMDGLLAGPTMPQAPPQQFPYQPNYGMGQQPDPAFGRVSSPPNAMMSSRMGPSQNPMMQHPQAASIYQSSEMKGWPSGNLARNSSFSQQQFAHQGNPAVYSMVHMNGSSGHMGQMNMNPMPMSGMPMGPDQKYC

In the case of `C/C(=N\Nc1nc2ccccc2n1CC1CN(c2ccc3c(c2)C(=O)N(C2CCC(=O)NC2=O)C3=O)C1)c1ccccn1` (configuration not stated), the Activity was “inactive”.
For `C/C(=N\Nc1nc2ccccc2n1C1CN(C(=O)C2CN(c3cccc4c3C(=O)N(C3CCC(=O)NC3=O)C4=O)C2)C1)c1ccccn1` (configuration not stated), the Activity was “inactive”.

In order of falling Activity:
1. C/C(=N\Nc1nc2ccccc2n1CC1CCN(C(=O)CCCCCCCNc2cccc3c2CN(C2CCC(=O)NC2=O)C3=O)CC1)c1ccccn1 (configuration not stated)  32%
2. C/C(=N\Nc1nc2ccccc2n1CC1CN(c2cccc3c2C(=O)N(C2CCC(=O)NC2=O)C3=O)C1)c1ccccn1 (configuration not stated)  15%
3. C/C(=N\Nc1nc2ccccc2n1CCNC(=O)C1CC2(CCN(c3ccc4c(c3)C(=O)N(C3CCC(=O)NC3=O)C4=O)CC2)C1)c1ccccn1 (configuration not stated)  5%

target: T1, von Hippel-Lindau disease tumor suppressor/Nuclear receptor coactivator 3 (Homo sapiens); experiment: PROTAC activity at VHL/SRC-3 in human MCF7 cells assessed as induction of […] degradation at 1 uM incubated for 24 hrs by immunoblot analysis relative to control; format: cell-based

`C/C(=N\Nc1nc2ccccc2n1CCNC(=O)CCCCCN[C@H](C(=O)N1C[C@H](O)C[C@H]1C(=O)N[C@@H](C)c1ccc(-c2scnc2C)cc1)C(C)(C)C)c1ccccn1` showed an Activity of 15%.

target: T2, Protein cereblon/Nuclear receptor coactivator 3; experiment: PROTAC activity at CRBN/SRC-3 in human MCF7 cells assessed as induction of ER-alpha degradation at 1 uM incubated for 24 hrs by immunoblot analysis relative to control; format: cell-based

In order of falling Activity:
1. C/C(=N\Nc1nc2ccccc2n1CC1CCN(C(=O)CCCCCCCNc2cccc3c2CN(C2CCC(=O)NC2=O)C3=O)CC1)c1ccccn1 (configuration not stated)  39%
2. C/C(=N\Nc1nc2ccccc2n1CC1CN(c2cccc3c2C(=O)N(C2CCC(=O)NC2=O)C3=O)C1)c1ccccn1 (configuration not stated)  26%
3. C/C(=N\Nc1nc2ccccc2n1CC1CN(c2ccc3c(c2)C(=O)N(C2CCC(=O)NC2=O)C3=O)C1)c1ccccn1 (configuration not stated)  15%
4. C/C(=N\Nc1nc2ccccc2n1C1CN(C(=O)C2CN(c3cccc4c3C(=O)N(C3CCC(=O)NC3=O)C4=O)C2)C1)c1ccccn1 (configuration not stated)  5%

In the case of `C/C(=N\Nc1nc2ccccc2n1CCNC(=O)C1CC2(CCN(c3ccc4c(c3)C(=O)N(C3CCC(=O)NC3=O)C4=O)CC2)C1)c1ccccn1` (configuration not stated), the Activity was “inactive”.

test system: MCF7; experiment: Antiproliferative activity against human MCF7 cells assessed as inhibition of cell growth by CCK8 assay; format: functional, cell-based

In order of falling pIC50:
1. C/C(=N\Nc1nc2ccccc2n1CC1CN(c2ccc3c(c2)C(=O)N(C2CCC(=O)NC2=O)C3=O)C1)c1ccccn1 (configuration not stated)  6.43
2. C/C(=N\Nc1nc2ccccc2n1CC1CCN(C(=O)CCCCCCCNc2cccc3c2CN(C2CCC(=O)NC2=O)C3=O)CC1)c1ccccn1 (configuration not stated)  6.08
3. C/C(=N\Nc1nc2ccccc2n1CCNC(=O)CCCCCN[C@H](C(=O)N1C[C@H](O)C[C@H]1C(=O)N[C@@H](C)c1ccc(-c2scnc2C)cc1)C(C)(C)C)c1ccccn1  5.80
4. C/C(=N\Nc1nc2ccccc2n1CCNC(=O)C1CC2(CCN(c3ccc4c(c3)C(=O)N(C3CCC(=O)NC3=O)C4=O)CC2)C1)c1ccccn1 (configuration not stated)  5.53
5. C/C(=N\Nc1nc2ccccc2n1CC1CN(c2cccc3c2C(=O)N(C2CCC(=O)NC2=O)C3=O)C1)c1ccccn1 (configuration not stated)  5.53
6. C/C(=N\Nc1nc2ccccc2n1C1CN(C(=O)C2CN(c3cccc4c3C(=O)N(C3CCC(=O)NC3=O)C4=O)C2)C1)c1ccccn1 (configuration not stated)  5.08

test system: not listed separately; experiment: Antiproliferative activity against tamoxifen-resistant human LCC2 cells assessed as inhibition of cell growth by CCK8 assay; format: functional, cell-based

In order of falling pIC50:
1. C/C(=N\Nc1nc2ccccc2n1CC1CN(c2ccc3c(c2)C(=O)N(C2CCC(=O)NC2=O)C3=O)C1)c1ccccn1 (configuration not stated)  5.51
2. C/C(=N\Nc1nc2ccccc2n1CC1CCN(C(=O)CCCCCCCNc2cccc3c2CN(C2CCC(=O)NC2=O)C3=O)CC1)c1ccccn1 (configuration not stated)  5.30
3. C/C(=N\Nc1nc2ccccc2n1CC1CN(c2cccc3c2C(=O)N(C2CCC(=O)NC2=O)C3=O)C1)c1ccccn1 (configuration not stated)  5.20
4. C/C(=N\Nc1nc2ccccc2n1CCNC(=O)CCCCCN[C@H](C(=O)N1C[C@H](O)C[C@H]1C(=O)N[C@@H](C)c1ccc(-c2scnc2C)cc1)C(C)(C)C)c1ccccn1  5.15
5. C/C(=N\Nc1nc2ccccc2n1CCNC(=O)C1CC2(CCN(c3ccc4c(c3)C(=O)N(C3CCC(=O)NC3=O)C4=O)CC2)C1)c1ccccn1 (configuration not stated)  5.06
6. C/C(=N\Nc1nc2ccccc2n1C1CN(C(=O)C2CN(c3cccc4c3C(=O)N(C3CCC(=O)NC3=O)C4=O)C2)C1)c1ccccn1 (configuration not stated)  4.83

test system: MCF7; experiment: Antiproliferative activity against human MCF7 cells harboring ER-alpha D538G mutant assessed as inhibition of cell growth by CCK8 assay; format: functional, cell-based

In order of rising pIC50:
1. C/C(=N\Nc1nc2ccccc2n1C1CN(C(=O)C2CN(c3cccc4c3C(=O)N(C3CCC(=O)NC3=O)C4=O)C2)C1)c1ccccn1 (configuration not stated)  4.93
2. C/C(=N\Nc1nc2ccccc2n1CCNC(=O)CCCCCN[C@H](C(=O)N1C[C@H](O)C[C@H]1C(=O)N[C@@H](C)c1ccc(-c2scnc2C)cc1)C(C)(C)C)c1ccccn1  5.60
3. C/C(=N\Nc1nc2ccccc2n1CC1CCN(C(=O)CCCCCCCNc2cccc3c2CN(C2CCC(=O)NC2=O)C3=O)CC1)c1ccccn1 (configuration not stated)  5.90
4. C/C(=N\Nc1nc2ccccc2n1CCNC(=O)C1CC2(CCN(c3ccc4c(c3)C(=O)N(C3CCC(=O)NC3=O)C4=O)CC2)C1)c1ccccn1 (configuration not stated)  5.95
5. C/C(=N\Nc1nc2ccccc2n1CC1CN(c2cccc3c2C(=O)N(C2CCC(=O)NC2=O)C3=O)C1)c1ccccn1 (configuration not stated)  6.25
6. C/C(=N\Nc1nc2ccccc2n1CC1CN(c2ccc3c(c2)C(=O)N(C2CCC(=O)NC2=O)C3=O)C1)c1ccccn1 (configuration not stated)  6.54

test system: MCF7; experiment: Antiproliferative activity against human MCF7 cells harboring ER-alpha Y537S mutant assessed as inhibition of cell growth by CCK8 assay; format: functional, cell-based

In order of rising pIC50:
1. C/C(=N\Nc1nc2ccccc2n1C1CN(C(=O)C2CN(c3cccc4c3C(=O)N(C3CCC(=O)NC3=O)C4=O)C2)C1)c1ccccn1 (configuration not stated)  4.72
2. C/C(=N\Nc1nc2ccccc2n1CCNC(=O)CCCCCN[C@H](C(=O)N1C[C@H](O)C[C@H]1C(=O)N[C@@H](C)c1ccc(-c2scnc2C)cc1)C(C)(C)C)c1ccccn1  5.56
3. C/C(=N\Nc1nc2ccccc2n1CCNC(=O)C1CC2(CCN(c3ccc4c(c3)C(=O)N(C3CCC(=O)NC3=O)C4=O)CC2)C1)c1ccccn1 (configuration not stated)  5.97
4. C/C(=N\Nc1nc2ccccc2n1CC1CCN(C(=O)CCCCCCCNc2cccc3c2CN(C2CCC(=O)NC2=O)C3=O)CC1)c1ccccn1 (configuration not stated)  6.03
5. C/C(=N\Nc1nc2ccccc2n1CC1CN(c2ccc3c(c2)C(=O)N(C2CCC(=O)NC2=O)C3=O)C1)c1ccccn1 (configuration not stated)  6.49
6. C/C(=N\Nc1nc2ccccc2n1CC1CN(c2cccc3c2C(=O)N(C2CCC(=O)NC2=O)C3=O)C1)c1ccccn1 (configuration not stated)  6.89

test system: MCF-10A; experiment: Cytotoxicity against human MCF-10A cells assessed as cell growth by CCK-8 assay; format: toxicity, cell-based

For `C/C(=N\Nc1nc2ccccc2n1CCNC(=O)CCCCCN[C@H](C(=O)N1C[C@H](O)C[C@H]1C(=O)N[C@@H](C)c1ccc(-c2scnc2C)cc1)C(C)(C)C)c1ccccn1`, the Activity was “Non-toxic”.

Reference: ChEMBL document CHEMBL6178017, “Intercepting the Downstream of the Estrogen Receptor Signaling Pathway: Discovery of a Potent and Efficient SRC-3 PROTAC Degrader for Overcoming Endocrine Resistance Breast Cancer” (J Med Chem, 2025)
